# Laboratory results as given in patent US20230322854A1, “HUNTINGTIN-RELATED PEPTIDE AGENTS AND USES THEREOF” (UNIVERSITY OF SOUTHERN CALIFORNIA, priority 2020, published 2023).
# Entries after “also recorded” stand apart in the source; their conditions may differ. No end group written: not given here.
# Columns and labels:
# [1] = system: unbundled Huntingtin fibrils (exon 1); assay: Radioactive binding assay, immobilized unbundled Huntingtin fibrils; conditions: for binding to Htt-fibrils: radiolabeled mRNA-peptide fusions, fibrils immobilized on beads
# Description: Messenger RNA (mRNA) display (described in (Roberts, et al. (1997) Proc Natl Acad Sci USA 94: 12297-302, Takahashi, et al. (2003) Trends Biochem Sci 28: 159-65); FIG. 2) was used to engineer peptide agents that bind to unbundled fibrils of Huntingtin exon 1. To do this, unbundled Huntingtin fibrils were generated by mixing biotinylated Huntingtin protein (exon 1; FIG. 1) with non-biotinylated exon 1 Huntingtin protein at a ratio of 1:20 (˜5% biotinylated Huntingtin). These fibrils were then immobilized on Neutravidin agarose (Thermo Fisher) or Streptavidin ultralink beads (Thermo Fisher) via the attached biotin. A MX9 (where X is any of the 20 natural amino acids) mRNA display library was generated using published procedures (Takahashi, et al. (2009) Methods Mol Biol 535: 293-314) and incubated with immobilized fibrils. Non-binding sequences were washed away and the remaining fibril binding peptides were amplified via RT-PCR. This process was repeated seven times.
# (§1) The binding of the peptide library was determined using a radioactive binding assay. In this assay, peptides were radiolabeled by translating the mRNA coding for these peptides in the presence of ^35S-methionine using rabbit reticulocyte lysate (Jackson, et al. (1983) Methods Enzymol 96: 50-74). These peptides were translated in an mRNA display format and were thus linked to their encoding mRNA, as described above. After purification by dT chromatography, the radiolabeled peptides were incubated with Huntingtin fibrils immobilized on Neutravidin Agarose or Streptavidin Ultralink beads. The beads were then filtered through a Spin X column (Corning) to separate the supernatant and beads, then washed to remove unbound sequences. The supernatant, washes, and beads were all counted in a scintillation counter to determine the counts in each sample. The percent bound was determined by dividing the counts on the beads with the total counts (beads+washes+supernatant).
# monomeric Huntingtin = assay: Radioactive binding assay, monomeric Huntingtin; conditions: radiolabeled peptide
# Procedure: as §1
# HD1 through HD4 were also tested for binding to monomeric Huntingtin (FIG. 5).
# (§2) HD1 and HD8 were also tested for binding specificity. Radiolabeled HD1 and HD8 were incubated with monomeric Huntingtin, unbundled Htt-fibrils, or α-Synuclein fibrils (α-Synuclein is another protein known to aggregate and form fibrils).
# α-Synuclein fibrils = α-Synuclein fibrils (Homo sapiens, UniProt P37840); assay: Radioactive binding assay, α-Synuclein fibrils; conditions: radiolabeled peptide
# Procedure: as §1, §2
# [2] = Radioactive binding assay, beads without target (no target control); conditions: radiolabeled peptide
# Procedure: as §1
# Htt-fibrils [3] = assay: Competition binding of synthetic peptide against radiolabeled peptide on immobilized fibrils; conditions: competitor = synthetic peptide in DMSO, 3.2 Fibril; for binding of radiolabeled HD8 to Htt-fibrils on addition of synthetic peptide: not to the same extent as with radiolabeled HD1
# Procedure: Radiolabeled HD1 or HD8 were bound to immobilized fibrils and the appropriate compound was tested in a competition binding assay. From left to right and for each dataset shown on the graph (i.e., “HD1” and “HD8”), the bars represent “No Target+DMSO”, “No Target+HD1”, “No Target+HD8”, “3.2 Fibril+DMSO”, “3.2 Fibril+HD1”, and “3.2 Fibril+HD8”.
# HD1 and HD8 were chemically synthesized and purified by reverse-phase HPLC and resuspended in DMSO. In order to verify that these synthetic peptides were functional for binding, we designed a competition experiment. We radiolabeled HD1 and HD8 above then tested to see if synthetic HD1 or HD8 would compete and reduce binding of the radiolabeled peptides. […] Binding to Htt-fibrils (3.2 Fibril+DMSO) was reduced by the addition of synthetic HD1 (3.2 Fibril+HD1) or by addition of synthetic HD8 (3.2 Fibril+HD8).
# Huntingtin protein = assay: In vitro Huntingtin aggregation assay imaged by electron microscopy; format: biochemical; conditions: synthetic peptide, 6 days
# Procedure: Synthetic HD1 and HD8 were also tested for their ability to inhibit fibril formation in an in vitro Huntingtin aggregation assay. In this assay, Huntingtin protein aggregated over a period of 6 days, forming fibrils that could be imaged using electron microscopy (FIG. 8; Controls).
# Htt-fibrils [4] = assay: EPR of spin-labeled peptide binding to Htt-fibrils; conditions: spin-labeled synthetic peptide
# Procedure: FIG. 10 presents graphs showing testing binding of chemically synthesized HD1 or HD8 using Electron Paramagnetic Resonance (EPR). […] Panel B is a graph showing the results of experiments aimed at the determination of the stoichiometry of peptides binding to Httex1 molecules in the fibril, in which a spin-labeled peptide (HD1 or HD8) is added to 15 μM fibrils.
# HD1 and HD8 binding was analyzed by electron paramagnetic resonance (EPR). The synthetic peptides were spin labeled using a free Cys at the C-terminus of the peptides. […] The stoichiometry of the complex was also studied using EPR, with varying amounts of peptide added to fibrils (FIG. 10, panel B).
# Huntingtin Exon 1 Q39 = molecular target: T1, Huntingtin Exon 1 Q39 (Homo sapiens, UniProt P42858, DUP21-38); assay: Co-localization of Alexa 488-labeled peptide with Httex1 Q39-RFP in fixed N2A cells; format: cell-based, mouse; conditions: fixed N2A cells transfected with Httex1 Q39-RFP
# T1 construct: expressing Huntingtin Exon 1 Q39 (mutant Huntingtin with 39 CAG repeats) fused to red fluorescent protein (tagRFP); expressed in transfected cells; host or cells: N2A (mouse neuroblastoma cell line)
# T1 sequence (P42858 with tags, fused parts or gaps DUP21-38): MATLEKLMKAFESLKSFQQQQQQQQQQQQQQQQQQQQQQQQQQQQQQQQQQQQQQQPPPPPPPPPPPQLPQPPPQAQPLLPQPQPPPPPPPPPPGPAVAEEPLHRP
# Procedure: In these experiments, N2A cells (mouse neuroblastoma cell line) were transfected with Httex1 Q39 fused with RFP (middle column). Cells were fixed and stained for HD 1 or HD 8 with Alexa 488 (left column). Co-localization of HD1/HD8 with Httex1 aggregates is shown in the merged image (co-localization observed in cells is indicated by white arrows). The “CTRL” rows show the non-transfected cells, which were treated with 5 times more peptide to confirm the localization was not due to aggregations of peptides or off-target binding occurring in the cell.
# HD1 and HD8 were also tested to see if the synthetic peptide recognized Huntingtin fibrils from cells. In this assay, HD1 and HD8 are were labeled with the fluorescent dye, Alexa 488 and were incubated with fixed N2A cells (a mouse neuroblastoma cell line) that were expressing Huntingtin Exon 1 Q39 (mutant Huntingtin with 39 CAG repeats) fused to red fluorescent protein (tagRFP). In control experiments, with no Huntingtin exon 1 (Q39)-RFP fusion (Httex1 Q39) transfected, a diffuse signal is observed with HD1 and HD8 peptides (FIG. 11; Controls).
# Httex1Q72 aggregates = molecular target: T2, Httex1Q72 aggregates (Homo sapiens, UniProt P42858, INS38QQQQQQQQQQQQQQQQQQQQQQQQQQQQQQQQQQQQQQQQQQQQQQQQQQQ); assay: Labeling of Httex1Q72 aggregates in fixed transfected HEK293 cells; format: cell-based; conditions: fixed cells 24 h after transfection, 0.1 micromolar peptide overnight
# T2 construct: Httex1Q72 (without RFP) was transfected into HEK293 cells; expressed in transfected cells
# T2 sequence (P42858 with tags, fused parts or gaps limits assumed, stated change not applied): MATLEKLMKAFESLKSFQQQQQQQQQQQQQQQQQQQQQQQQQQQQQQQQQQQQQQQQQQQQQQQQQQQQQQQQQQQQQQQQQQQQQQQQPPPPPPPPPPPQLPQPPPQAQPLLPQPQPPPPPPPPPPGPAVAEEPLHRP
# Description: Left panels show fluorescent images (top left panel: nuclear stain to visualize all cells; middle left panel: fluorescein signal arising from the HD8-SP10-HD1-fluorescein peptide; bottom left panel: antibody against fluorescein to further amplify fluorescein signal). Right panels show phase contrast image of the same field. Arrows point to cytoplasmic aggregates that could be visualized with fluorescent signals or under phase contrast. Asterisks mark intranuclear aggregates that were labeled with HD8-SP10-HD1-fluorescein but not anti-fluorescein antibody.
# Next, we tested the ability of HD peptides to bind Httex1 aggregates formed in cultured cells. To do this, Httex1Q72 (without RFP) was transfected into HEK293 cells. […] The antibody labeled the rim of the cytoplasmic aggregates and the signal also surrounded some cell nuclei. Little antibody staining was observed on intranuclear aggregates.
# Httex1 aggregates [5] = assay: Labeling of Httex1 aggregates in retinal sections of Huntington mouse models; conditions: 34-week-old R6/1 mice, 0.1 micromolar
# Description: FIG. 28 presents fluorescence microscopy pictures showing that HD8-Alexa488 labels aggregated Httex1 in retina sections from two different mouse model of Huntington disease. Left panels show nuclear stain that labels all cells. Right panels show signal from HD8-Alexa488. Top panels show a retinal section from a R6/1 mouse, and bottom panels show a retinal section from a zQ175KI mouse.
# Left panels show nuclear stain that labels all cells (A1 and B1), and right panels show signal from HD8-SP10-HD1-fluorescein (A2 and B2). Top panels are higher magnification that show the ganglion cell layer of the retina, and the bottom panels are lower magnification micrographs that show all retinal layers. Labeling of all retinal layers is seen when the HD peptides are dimerized. The phase contrast panel to the left of the bottom panels show the corresponding retinal layers: ONL: outer nuclear layer that contain rod and cone photoreceptor cells, INL: inner nuclear layer that contains cell bodies from horizontal cells, bipolar cells, amacrine cells and Müller cells, GCL: ganglion cell layer.
# To see whether HD peptides bind Httex1 aggregates formed in vivo, we used tissues from two different Huntington mouse models, R6/1 (34 weeks old) and zQ175KI (48 weeks). FIG. 28 show retinal sections from these mice incubated with 2 micromolar of HD8 conjugated with Alexa488 at its carboxyl terminus.
# HD8-HD1-fluorescein (0.1 micromolar) was also used on retinal sections from 34-week-old R6/1 mice (FIG. 29). […] In addition, weaker signal from intranuclear aggregates was also observed. Further, the signal can now be detected in all layers of the retina where the nuclei reside.
# Httex1 aggregates [6] = assay: Labeling of Httex1 aggregates in brain sections of R6/1 mice; parameters: species or system mouse; conditions: R6/1 mice (34 weeks) versus age-matched control
# Description: Brain sections from age-matched littermate control and R6/1 mouse are shown in this figure.
# HD8-HD1-fluorescein was also used on brain sections from R6/1 mice (34 weeks).
# [7] = molecular target: unbundled fibrils of Huntingtin exon 1 (about 5% biotinylated), immobilized on beads (UniProt P42858); assay: radioactive binding assay, fibrils immobilised on beads
# [8] = listed as HD8-SP10-HD1-fluorescein
Substance,binding to Htt-fibrils [1],"binding to Htt-fibrils in the presence of serum ([1]; serum diluted 1:2, 1:5 or 1:10 with buffer (TBST))",binding to monomeric Huntingtin (monomeric Huntingtin),binding to α-Synuclein fibrils (α-Synuclein fibrils),binding to beads without target [2],binding of radiolabeled HD1 to Htt-fibrils on addition of synthetic peptide (Htt-fibrils [3]),binding of radiolabeled HD8 to Htt-fibrils on addition of synthetic peptide (Htt-fibrils [3]),inhibition of fibril formation (Huntingtin protein),EPR central line amplitude upon addition of Htt fibrils (peptide-fibril complex formation) (Htt-fibrils [4]),colocalization of Alexa 488 signal and RFP signal (Huntingtin Exon 1 Q39),labeling of Httex1Q72 aggregates (Httex1Q72 aggregates),labeling of Httex1Q72 aggregates (Httex1Q72 aggregates; [8]),labeling of retinal sections (Httex1 aggregates [5]),labeling of retinal sections (Httex1 aggregates [5]; [8]),labeling of brain sections (Httex1 aggregates [6]),labeling of brain sections (Httex1 aggregates [6]; [8]),fold less binding as compared with HD1 and HD8 [7] [fold]
MDWWPMWPSL [HD1],demonstrated binding to Htt-fibrils; also recorded: bind to Htt-fibrils; also recorded: show binding to Htt-fibrils,serum partially inhibits the binding,little to no binding,little to no binding,little to no binding to beads without target; also recorded: little to no binding,reduced,similarly reduced,significant inhibition of fibril formation,decrease in central line amplitude,significant colocalization,–,–,–,–,–,–,–
MWQMMNGMSQ [HD8],good binding to Htt-fibrils; also recorded: bind to Htt-fibrils; also recorded: show binding to Htt-fibrils,–,little to no binding,little to no binding,little to no binding to beads without target; also recorded: little to no binding; also recorded: low binding to beads without target,reduced,similarly reduced,significant inhibition of fibril formation,decrease in central line amplitude,significant colocalization,–,–,–,–,–,–,–
HD8-HD1-fluorescein: HD8-HD1 labeled with fluorescein at its carboxyl terminus (MWQMMNGMSQGSGTSGSSGSMDWWPMWPSL-fluorescein),–,–,–,–,–,–,–,–,–,–,strong labeling of the round cytoplasmic Httex1Q72 aggregates (arrows) and intranuclear aggregates,bound Httex1Q72 aggregates,Robust signal from the peptide can be seen in the ganglion cell layer,enhanced reactivity of Httex1 aggregates in all retinal layers,abundant signal from R6/1 brain,labels Httex1 aggregates in brain section,–
QBP1 (peptide),–,–,–,–,–,–,–,–,–,–,–,–,–,–,–,–,10
